In the supplement of paper PMC11997997:

How the values were obtained:
[1] = test system: Mycobacterium tuberculosis CDC1551 (intracellular, in murine BMDM); test: area under intracellular growth-inhibition dose-response curve (AUC (% inhibition x dose, relative)); higher = more potent; settings: duration: 6 days; dose range: 0.13-80 uM, 8 points
Method in brief: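 Luciferase-expressing M. tuberculosis CDC1551 was used at multiplicity of infection 1 for 1 h to infect primary murine bone marrow-derived macrophages in 384-well opaque plates, 24 h after seeding. Treatment followed for 6 days with an 8-dose, 2.5-fold series at final concentrations of 80–0.13 μM. GraphPad Prism was used to calculate the area under the growth-inhibition dose–response curve from Bright-Glo luciferin readings normalised to a reference drug control and the lowest-concentration wells.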

[2] = test system: murine bone marrow-derived macrophages; test: area under cytotoxicity dose-response curve (AUC (% cytotoxicity x dose, relative)); higher = more cytotoxic; settings: duration: 6 days; dose range: 0.13-80 uM, 8 points
Method in brief: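 Cytotoxicity is given as the area under the dose–response curve, computed in GraphPad Prism version 10. Primary murine bone marrow-derived macrophages in opaque 384-well plates received an 8-point, 2.5-fold dilution series (final 80–0.13 μM) for 6 days at 37 °C in 5% CO2. Viability was measured by Promega's CellTiter-Glo luminescence assay, with percent cytotoxicity normalised to vehicle and positive control wells.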

Row | SMILES | area under intracellular growth-inhibition dose-response curve [1] | area under cytotoxicity dose-response curve [2]
1 | C/C(=N\NC(N)=S)c1ccc(-n2ccnc2)cc1 | 195 | 69
2 | CCOc1ccc(Br)cc1/C=N/NC(=O)c1ccncc1 | 268 | < 0
3 | CC1CCCC(/C=N/c2ccc(C(=O)O)c(O)c2)=C1O (configuration not stated) | 135 | < 0
4 | O=C(OCC(=O)C12CC3CC(CC(C3)C1)C2)c1ccc(CO)cc1 | 124 | < 0
5 | O=C(COC(=O)CCCOc1ccc(Cl)cc1Cl)NCc1ccc(F)cc1 | 9.47 | 40.6
6 | O=C(CC1CC2CCC1C2)NCc1cccs1 (configuration not stated) | 193 | 65.1
7 | N#CCc1ccc(NC(=O)/C=C/c2ccc([N+](=O)[O-])o2)cc1 | 35 | 124
8 | CSc1sccc1/C=N/NC(=O)c1ccncc1 | 249 | 15.4
9 | Cc1ccccc1N1CCN(Cc2ccc([N+](=O)[O-])o2)CC1 | 263 | < 0
10 | CCCCn1c(N)c(N(CCOC)C(=O)c2oc3ccc(Br)cc3c2C)c(=O)[nH]c1=O | 207 | 7.25
11 | O=C(COc1ccc(/C=N/NC(=O)c2ccncc2)cc1)Nc1ccccc1 | 266 | 34.4
12 | O=C(Cc1ccc(Br)cc1)N1CCCC1 | 208 | < 0
13 | O=C(CSc1ccc(Cl)cc1)NNC(=O)c1ccncc1 | 241 | 107
14 | COc1ccc(/C=N/NC(=O)c2ccncc2)cc1CN1CCN(c2ccc(F)cc2)CC1 | 228 | 3.26
15 | O=C(NC(CO)C(O)c1ccc([N+](=O)[O-])cc1)C(Cl)Cl (configuration not stated) | 113 | 21.4
16 | COc1ccc(C2=NCCn3c2c2ccc(C(F)(F)F)cc2[n+]3[O-])cc1 | 95.2 | 108
